# Patent US20030028927A1 (priority 2001, published 2003)
# Columns and labels:
# Format in all cases: in vivo, Arabidopsis thaliana
# [1] = system: Arabidopsis seedlings (ecotypes Col, Ler, Shadara); assay: Morphological phenotypes of Arabidopsis ecotype seedlings grown on Hsp90 inhibitor
# Description: In most cases phenotypes were distinct and were not accompanied by a general failure to thrive. […] Next, several Arabidopsis ecotypes were tested from diverse geographic locations and environments, including Cape Verde Island ([…], Tsu-1, Mr-0, and Ts-1. […] Particular phenotypes were not restricted to particular ecotypes, but the frequencies at which they appeared varied reproducibly between them. […] 30% of seedlings had these phenotypes. […] also frequently produced distorted rosettes with juxtaposed cotyledons. Dwarfed plants with cotyledons that accumulated purple pigment were most common in Col. Curled hypocotyls were most frequent in Ler. Ecotypes were crossed several times in independent experiments to produce F1 seeds. […] Plates were unwrapped after 48 hrs at 22° C., were incubated in continuous light at 150 μmol m^-2 sec^-1 (unless otherwise indicated), and were analyzed after eight and ten days of growth.
# [2] = system: Cvi/Ler RI line seedlings; assay: RI line specific phenotypes on GdA
# Excerpt: To test this, recombinant inbred lines (RI lines) were examined, which originated from crosses between two ecotypes followed by single-seed self-propagation for eight generations. Each line should be homozygous at almost all loci, with different lines representing various mosaics of the parental genomes (Alonso-Blanco et al., 1998). If a decrease in Hsp90 function uncovers novel phenotypes due to natural variation, GdA-induced phenotypes should vary between RI lines but tend to be shared within them. Here, work with 50 RI lines derived from a cross between Cvi and Ler (Cvi/Ler, CS22477 base set, ABRC) is presented. These lines are characterized by high rates of recombination and low segregation distortion (Alonso-Blanco et al., 1998). Col/Ler RI lines behaved similarly, although phenotypic variation was not quite so dramatic.
# (§1) Ecotypes were crossed several times in independent experiments to produce F1 seeds. […] Plates were unwrapped after 48 hrs at 22° C., were incubated in continuous light at ˜150 μmol m^−2 sec^−1 (unless otherwise indicated), and were analyzed after eight and ten days of growth.
# To minimize variation and provide more objective comparisons, two RI lines were plated together on each square plate. All sets were cold treated for 48 hrs. Foil-wrapped plates incubated at 22° C. were treated as described above. Since development was more rapid at 27° C., these plates were unwrapped after 24 hrs instead of 48 hrs. Phenotypes were scored at eight and ten days.
# [3] = system: F1 seedlings (Col x Ler and Ler x Cvi); assay: Phenotypes of F1 progeny of accession crosses with GdA; conditions: Col x Ler and Ler x Cvi F1, in the presence of GdA
# Excerpt: To investigate the interplay of genetic variation, stochastic processes, and their dependence on the Hsp90 buffering system, Applicants tested crosses of different, nearly homozygous accessions (Col x Ler and Ler x Cvi) that are believed to have been recentlyevolving independently. If stochastic events contribute to phenotypes predisposed by genotype, then mixing genomes might disrupt developmental stability in F1 progeny. Further, if Hsp90 buffers developmental stability against such events, reducing Hsp90 function in nearly identical F1 progeny should increase phenotypic variance. […] Phenotypes were stronger and more frequent in seedlings with a maternal contribution from Ler (˜20 to 25% affected seedlings) than with maternal contributions from Col or Cvi (˜10 to 15%).
# as §1
# [4] = RI line 082, S-shaped rosette with vertically oriented leaf blade of cotyledons
# [5] = RI line 104, purple pigmentation of cotyledons and true leaves
# [6] = RI line 113, curled hypocotyl with root partially extended into air
# [7] = RI line 119, deformed, radially-symmetric and missing true leaves
# [8] = RI line 120, radially-symmetric and missing true leaves
# [9] = RI line 122, distorted rosette, juxtaposed or fused cotyledons
structure (smiles),measurement,setting,value
"COC1=C2C[C@@H](C)C[C@H](OC)[C@H](O)[C@@H](C)/C=C(\C)[C@H](OC(N)=O)[C@@H](OC)/C=C\C=C(/C)C(=O)NC(=CC1=O)C2=O [GdA, geldanamycin]",seedlings showing strong morphological abnormalities,"[1]; 1.0 μM GdA, Col and Ler",5-8%
same,phenotype frequency in selfed progeny,"[1]; progeny of selfed Shadara plants with subtle true leaf abnormalities, with GdA",75%
same,Frequency with 1 μM GdA at 22° C.,[2]; [4],32%
same,Frequency with 1 μM GdA at 22° C. (count),[2]; [4],64/201
same,Frequency with 1 μM GdA at 22° C.,[2]; [5],34%
same,Frequency with 1 μM GdA at 22° C. (count),[2]; [5],29/84
same,Frequency with 1 μM GdA at 22° C.,"[2]; RI line 104, root morphology",52%
same,Frequency with 1 μM GdA at 22° C. (count),"[2]; RI line 104, root morphology",44/84
same,Frequency with 1 μM GdA at 22° C.,[2]; [6],32%
same,Frequency with 1 μM GdA at 22° C. (count),[2]; [6],9/28
same,Frequency with 1 μM GdA at 22° C.,[2]; [7],68%
same,Frequency with 1 μM GdA at 22° C. (count),[2]; [7],19/28
same,Frequency with 1 μM GdA at 22° C.,[2]; [8],64%
same,Frequency with 1 μM GdA at 22° C. (count),[2]; [8],18/29
same,Frequency with 1 μM GdA at 22° C.,[2]; [9],28%
same,Frequency with 1 μM GdA at 22° C. (count),[2]; [9],44/158
same,Frequency with 1 μM GdA at 22° C.,"[2]; RI line 134, bent hypocotyls",88%
same,Frequency with 1 μM GdA at 22° C. (count),"[2]; RI line 134, bent hypocotyls",49/56
same,Frequency with 1 μM GdA at 22° C.,"[2]; RI line 159, root morphology",50%
same,Frequency with 1 μM GdA at 22° C. (count),"[2]; RI line 159, root morphology",53/105
same,decrease of growth rate,[2]; relative to plants grown without GdA at 22° C.,0.5 to 1 days
same,frequency of abnormal phenotypes in F1 progeny,[3],up to 25%
